The test system of experiment [1] is Fc fragment of an antibody. The experiment can be described thus: Incubation of bead-bound ligands with labelled Fc fragment, fluorescence on beads. The class given is binding. Set-up: key: 0 indicates no fluorescence; 3 indicates the strongest level of fluorescence observed. The conditions noted are these: Oregon Green labelled Fc fragment, ligands on PEGA1900 beads, overnight at room temperature, arbitrary scale from 0 to 3, judged by eye. On the procedure:
The Fc fragment of an antibody was purified by dialysis in bicarbonate buffer (pH 8). The purified Fc fragment was treated with Oregon Green dye (50×) in DMF and kept for 1 hour at room temperature. The reaction was stopped by adding hydroxylamine (1.5 M, pH 8.5). The labelled polypeptide was purified by dialysis in bicarbonate buffer (pH 8).
The beads (10 mg) were washed with water (10×), bicarbonate buffer (pH 8, 10×), and were suspended in bicarbonate buffer for 1 h. The labelled polypeptide was then added to the resin and kept overnight at room temperature. The resin was washed with bicarbonate buffer (pH 8) and water.
The fluorescence on the beads was recorded by using a fluorescence microscope and a digital camera. A mercury lamp equipped with an emission filter provided excitation in the visible blue range. The images of the beads were recorded in water.
The below table lists the ligands and the corresponding apparent level of fluorescence determined by simply looking at the samples and comparing the apparent colour intensities between samples. On an arbitrary scale from 0 to 3, where 0 indicates no fluorescence and 3 indicates the strongest level of fluorescence observed.

Another experiment relates to monoclonal antibody. Kind of experiment: Chromatographic evaluation of ligands coupled on Fractogel (packed column, load, wash, elution, regeneration). The class given is binding. Particulars: not optimized operation conditions. As to the method: The new resins were assessed in packed mode. 1 mL of each resin was packed into an HR5 chromatography column (GE Healthcare) applying standard conditions.
Before loading the matrix with the monoclonal antibody, the column was equilibrated with 6 column volumes equilibration buffer containing 50 mM Na-phosphate (pH 7.0; cond. 9 mS cm^−1). After equilibration a monoclonal antibody solution in equilibration buffer (protein conc. 1.14 mg/mL) was loaded to the column. Subsequently, the column was washed with 6 column volumes of equilibration buffer and eluted with 6 column volumes of elution buffer 1 (25 mM sodium acetate pH 5.5; cond. 1.8 mS cm^−1) and 6 column volumes of elution buffer 2 (25 mM sodium acetate buffer pH 3.8; 0.5 mS cm^−1). The column was stored in […] ethanol. Afterwards, the matrix was regenerated with 40 mM phosphoric acid and 20 mM sodium hydroxid. The flow rate for equilibration, load and wash was 60 cm/h, elution and regeneration was performed at a flow rate of 30 cm/h.

Where “and” joins values, the source holds several entries; their conditions need not be identical. Identical values can stand only once.

Consider PPC-Ahx-PPC-Gly [LI#53], for which the “mark (apparent level of fluorescence)” value in experiment [1] came to 2. As to L-Arg-(L)Arg-D-Phe-Gly [LI#18], in experiment [1], the “mark (apparent level of fluorescence)” value is 2.

With 3HBA-(L)Pro-(L)Arg-Gly [LII#45], the “mark (apparent level of fluorescence)” value in experiment [1] stood at 2.

Take DBHBA-(L)Asn-(L)Arg-Gly [LII#55]: the “mAb in the flow through (in words)” value in the experiment on monoclonal antibody was “only limited material is in the flow through”. The “mark (apparent level of fluorescence)” value in experiment [1] came out at 3. Turning to L-Arg-(L)Arg-D-Lys-Gly [LI#27], the “mark (apparent level of fluorescence)” value in experiment [1] is recorded as 2. Still for that read-out and setting: the value for L-Arg-D-Phe-(L)Arg-Gly [LI#17] was 3 and 2; that for 4HBA-(L)Pro-(L)Arg-Gly [LII#47] was 2; that for PPC-(L)Arg-D-Pro-Gly [LI#20] was 2. The same measure, in the same setting: the value for L-Arg-D-Pro-PPC-Gly [LI#24] was 2. With SAA-(L)Pro-(L)Arg-Gly [LII#49], the “mark (apparent level of fluorescence)” value in experiment [1] was 3. For DBHBA-(L)Arg-(L)Asn-Gly [LII#54], the “mark (apparent level of fluorescence)” value in experiment [1] amounted to 3. Still for that read-out and setting: the value for INA-(L)Arg-D-Lys-Gly [LI#44] was 2; that for 4HBA-(L)Arg-(L)Pro-Gly [LII#46] was 2.

Turning to D-Pro-PPC-(L)Arg-Gly [L1#21], the “mark (apparent level of fluorescence)” value in experiment [1] worked out at 2.

For the substance INA-D-Phe-PPC-Gly [LI#12], the “mark (apparent level of fluorescence)” value in experiment [1] is 2. For the substance D-Phe-(L)Arg-(L)Arg-Gly [LI#16], in the experiment with monoclonal antibody, the “mAb in the flow through (in words)” value was “nothing was detected in the flow through”. Moreover, the “mark (apparent level of fluorescence)” value is 2 in experiment [1] and 3 in experiment [1] (listed as L1#16). As for L-Arg-D-Lys-(L)Arg-Gly [LI#26], the “mark (apparent level of fluorescence)” value in experiment [1] worked out at 2. On the same count and under the same terms, the value for D-Lys-INA-(L)Arg-Gly [LI#41] was 2; that for PPC-D-Pro-(L)Arg-Gly [LI#19] was 3. Still for that read-out and setting: then PPC-D-Leu-PPC-Gly [L1#50], with 3.

With 3HBA-(L)Arg-(L)Pro-Gly [LII#44], the “mark (apparent level of fluorescence)” value in experiment [1] is on record as 2. Consider PPC-Nle-PPC-Gly [LI#56], for which, in experiment [1], the “mark (apparent level of fluorescence)” value worked out at 2.

On to SAA-(L)Arg-(L)Pro-Gly [LII#48], for which, in experiment [1], the “mark (apparent level of fluorescence)” value is given as 3. Still for that read-out and setting: then PPC-Aib-PPC-Gly [LI#14], with 2.

Values taken from US20080311681A1, “Antibody Binding Affinity Ligands” (priority 2004, published 2008).
